Reference: patent US7390830B1, “Remedies or prophylactics for diseases in association with chemokines” (Teijin Limited, priority 1999, dated 2008)

Target: T1, human MCP-1 binding to THP-1 cells (Homo sapiens, UniProt P41597)
T1 construct: endogenous in cells; host or cells: THP-1 (whole cells)
T1 sequence (P41597 1-360 isoform P41597-2): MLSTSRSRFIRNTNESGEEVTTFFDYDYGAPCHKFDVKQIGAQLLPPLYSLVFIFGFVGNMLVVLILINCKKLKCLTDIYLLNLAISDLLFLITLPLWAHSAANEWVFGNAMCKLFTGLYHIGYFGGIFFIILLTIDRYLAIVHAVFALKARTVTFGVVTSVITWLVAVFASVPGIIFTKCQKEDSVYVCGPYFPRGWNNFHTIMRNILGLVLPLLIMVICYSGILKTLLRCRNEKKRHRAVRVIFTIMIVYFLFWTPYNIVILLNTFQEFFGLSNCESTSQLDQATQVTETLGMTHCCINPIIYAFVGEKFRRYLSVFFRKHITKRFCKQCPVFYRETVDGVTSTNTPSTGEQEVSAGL
Assay: Inhibitory activity against binding of [125I]-labeled human MCP-1 to THP-1 cells (method 2)
Conditions: concentration of 1 μM
Description: Two kinds of DNA synthetic primers (5′-[…]-3′ (SEQ ID NO:1) and 5′-[…]-3′) (SEQ ID NO:2) having restriction enzyme recognition sites applied on the basis of the known human MCP-1 gene sequence (see, for example, Yoshimura, T. et al. FEBS Letters 1989, 244, 487-493) were used to amplify a cDNA derived from human vascular endothelial cells (purchased from Kurabow) according to a PCR method. The amplified fragment was cleaved with restriction enzymes (PstI and XbaI) and then ligated into a transfer vector pVL1393 (Invitrogen Co.). The resulting vector was co-transfected with an infectious baculovirus into Sf-9 insect cells. Human MCP-1 gene recombinant baculoviruses were isolated from the obtained supernatant by a plaque assay method.
According to the method of Ishii, K. et al. (see Biochemical and Biophysical Research Communications, 1995, 206, 955-961), 5×10^6 cells of Sf-9 insect cells were infected with 5×10^7 PFU (plaque-forming units) of the above human MCP-1 gene recombinant baculoviruses and cultured in EX-CELL 401 medium for 7 days. The resulting culture supernatant was affinity purified by a heparin-Sepharose column (Pharmacia Co.) and then subjected to reverse phase HPLC (Vydac C18 column) to afford a purified human MCP-1. The protein labeling of the resulting purified human MCP-1 was requested for Amersham Co. to obtain a [^125I]-labeled human MCP-1 expressed with baculovirus (specific activity: 2000 Ci/mmol) prepared by the Bolten Hunter method. The resulting [^125I]-labeled human MCP-1 was used for the following tests.
THP-1 cells which are human monocytic leukemia cell line were suspended in an assay buffer (containing 50 mM of HEPES, 11.0 mM of CaCl2, 5.0 mM of MgCl2 and 0.5% of BSA at pH 7.4) so as to provide 1×10^7 cells/mL to thereby obtain a cell suspension. A solution obtained by diluting the test compound with the assay buffer was used as a test compound solution. A solution prepared by diluting the above [^125I]-labeled human MCP-1 expressed with baculovirus with the assay buffer so as to provide 1 μCi/mL was used as a labeled ligand solution. In a 96-well filter plate (Millipore Co.), were aliquoted 25 μL of the test compound solution, 25 μL of the labeled ligand solution and 50 μL of the cell suspension in the order mentioned for each well. The solutions were stirred (100 μL of the reaction solution) and then incubated at 18° C. for 1 hour.
After completing the reaction, the reaction solution was filtered through a filter, and the filter was washed with 200 μL of cold PBS twice (the reaction solution was filtered after adding 200 μL of the cold PBS). The filter was air-dried, and […] of liquid scintillator was then added by into each well to count the radioactivity retained by the cells on the filter using TopCount (Packard Instrument Co.). The count when 100 ng of the above human MCP-1 expressed with baculovirus(unlabeled) instead of the test compound was added was subtracted as nonspecific adsorption, and the count when the test compound was not added was 100%. Thereby, the inhibitory activity of the test compound against binding of the human MCP-1 to THP-1 cells was calculated. Inhibition ratio (%)={1−(A−B)/(C−B)}×100 (wherein A is the count when the test compound is added; B is the count when 100 ng of the unlabeled human MCP-1 is added; C is the count when only the [^125I]-labeled human MCP-1 is added).

inhibition at 1 µM [%] | Structure (SMILES)
20 to 50 | Nc1cc(F)c(F)cc1C(=O)NCC(=O)NCC1CCN(c2ccc3nonc3c2)CC1 [Compd. No. 2130, 4-[[N-(2-amino-4,5-difluorobenzoyl)glycyl]aminomethyl]-1-(benzo[c]furazan-5-yl)piperidine]
20 to 50 | COc1ccc(CN2CCC(CNC(=O)CNC(=O)c3cccc(C(F)(F)F)c3)CC2)cc1O [Compd. No. 1452, 1-[3-hydroxy-4-methoxybenzyl]-4-[[N-(3-(trifluoromethyl)benzoyl)glycyl]aminomethyl]piperidine]
20 to 50 | Cc1noc(C)c1N1CCC(CNC(=O)CNC(=O)c2cc(F)c(F)cc2N)CC1 [Compd. No. 2131, 4-[[N-(2-amino-4,5-difluorobenzoyl)glycyl]aminomethyl]-1-(3,5-dimethylisoxazol-4-yl)piperidine]
50 to 80 | Cc1ccc(C(=O)NCC(=O)NCC2CCN(Cc3ccc(Cl)cc3)CC2)cc1Br [Compd. No. 1113, 4-[[N-(3-bromo-4-methylbenzoyl)glycyl]aminomethyl]-1-(4-chlorobenzyl)piperidine]
> 80 | Nc1ccc(C(F)(F)F)cc1C(=O)NCC(=O)N[C@@H]1CCN(c2ccc3ocnc3c2)C1 [Compd. No. 2189, (R)-3-[[N-(2-amino-5-trifluoromethylbenzoyl)glycyl]amino]-1-(benz[d]oxazol-5-yl)pyrrolidine]
50 to 80 | COc1ncc(CN2CC[C@@H](NC(=O)CNC(=O)c3cc(C(F)(F)F)ccc3N)C2)c(OC)n1 [Compd. No. 2175, (R)-3-[[N-(2-amino-5-trifluoromethylbenzoyl)glycyl]amino]-1-(2,4-dimethoxypyrimidin-5-ylmethyl)pyrrolidine]
20 to 50 | COCCNC(=O)c1ccc(CN2CCC(CNC(=O)CNC(=O)c3cccc(C(F)(F)F)c3)CC2)cc1 [Compd. No. 1612, 1-[4-[N-(2-methoxyethyl)carbamoyl]benzyl]-4-[[N-(3-(trifluoromethyl)benzoyl)glycyl]aminomethyl]piperidine]
50 to 80 | Nc1ccc(Cl)cc1C(=O)NCC(=O)N[C@@H]1CCN(Cc2ccc(Cl)cc2)C1 [Compd. No. 1084, (R)-1-(4-chlorobenzyl)-3-[[N-(2-amino-5-chlorobenzoyl)glycyl]amino]pyrrolidine]

System: THP-1 cells
Assay: Inhibitory activity against cell chemotaxis caused by MCP-1
Assay type: cell-based
Conditions: Homo sapiens, MCP-1 20 ng/mL
Description: In order to determine the inhibitory activity of the compounds according to the present invention against the cell chemotaxis, human monocytic leukemia cell line THP-1 was used as chemotactic cells according to the method of Fall et al. (J. Immunol. Methods, 1980, 33, 239-247) to determine the cell chemotaxis caused by monocyte chemotactic factor MCP-1 as follows: Namely, 2×10^6 cells/mL of the THP-1 cells [suspended in RPMI-1640 (Flow Laboratories Co.) 10% FCS] were placed in the upper chamber (200 μL) of a 96-well microchemotaxis chamber (Neuroprobe®), and human recombinant MCP-1 (Peprotech Co.) diluted with the same solution so as to provide the final concentration of 20 ng/mL was placed in the lower chamber (35 μL). A polycarbonate filter (PVP-free, Neuroprobe®) was placed between the two chambers. These were incubated in the presence of 5% of CO2 at 37° C. for 2 hours.
The filter was removed, and the cells which had migrated to the undersurface of the filter were immobilized, stained using Diff Quick (Kokusai Shiyaku Co.) and then measured at a measuring wavelength of 550 nm using a plate reader (Molecular Device Co.) to determine the means of 3 wells. Thereby, the indication of the number of cells migrated was obtained. The test compound together with the THP-1 cells was added to the upper chamber at various concentrations to determine the inhibitory activity against cell chemotaxis [degree of inhibition: IC50 (μM)].

IC50 [µM] | Structure (SMILES)
≤ 0.1 | Nc1cc(CN2CCC(CNC(=O)CNC(=O)c3cc(F)c(F)cc3N)CC2)ccc1O [Compd. No. 2141, 4-[[N-(2-amino-4,5-difluorobenzoyl)glycyl]aminomethyl]-1-(3-amino-4-hydroxybenzyl)piperidine]
≤ 0.1 | Nc1ccc(Br)cc1C(=O)NCC(=O)NCC1CCN(Cc2ccc(Cl)cc2)CC1 [Compd. No. 1042, 4-[N-(2-amino-5-bromobenzoyl)glycyl]aminomethyl-1-(4-chlorobenzyl)piperidine]
≤ 0.1 | Nc1cc(Cl)ccc1CN1CCC(CNC(=O)CNC(=O)c2cc(C(F)(F)F)ccc2N)CC1 [Compd. No. 1919, 4-[[N-(2-amino-5-trifluoromethylbenzoyl)glycyl]aminomethyl]-1-(2-amino-4-chlorobenzyl)piperidine]
≤ 0.1 | Cc1ccc(CN2CCC(CNC(=O)CNC(=O)c3cc(F)c(F)cc3N)CC2)cc1N [Compd. No. 2114, 4-[[N-(2-amino-4,5-difluorobenzoyl)glycyl]aminomethyl]-1-(3-amino-4-methylbenzyl)piperidine]
≤ 0.1 | Cc1noc(C)c1CN1CC[C@@H](NC(=O)CNC(=O)c2cc(F)cc(C(F)(F)F)c2)C1 [Compd. No. 1191, (R)-3-[N-[3-fluoro-5-(trifluoromethyl)benzoyl]glycyl]amino-1-(3,5-dimethylisoxazol-4-ylmethyl)-pyrrolidine]
≤ 0.1 | O=C(CNC(=O)c1cccc(C(F)(F)F)c1)NCC1CCN(Cc2ccc(Cl)cc2)CC1 [Compd. No. 461, 1-(4-chlorobenzyl)-4-[[N-[3-(trifluoromethyl)benzoyl]glycyl]aminomethyl]piperidine]
≤ 0.1 | COc1ccc(CN2CC[C@@H](NC(=O)CNC(=O)c3cc(OC(F)(F)F)ccc3N)C2)cc1O [Compd. No. 1896, (R)-3-[[N-(2-amino-5-trifluoromethoxybenzoyl)glycyl]amino]-1-(3-hydroxy-4-methoxybenzyl)pyrrolidine]
≤ 0.1 | Nc1ccc(C(F)(F)F)cc1C(=O)NCC(=O)N[C@@H]1CCN(c2ccc3ocnc3c2)C1 [Compd. No. 2189, (R)-3-[[N-(2-amino-5-trifluoromethylbenzoyl)glycyl]amino]-1-(benz[d]oxazol-5-yl)pyrrolidine]
≤ 0.1 | C=Cc1ccc(CN2CC[C@@H](NC(=O)CNC(=O)c3cc(C(F)(F)F)ccc3N)C2)cc1 [Compd. No. 1701, (R)-3-[[N-(2-amino-5-(trifluoromethyl)benzoyl)glycyl]amino]-1-(4-vinylbenzyl)pyrrolidine]
≤ 0.1 | CNc1cc(CN2CC[C@@H](NC(=O)CNC(=O)c3cc(C(F)(F)F)ccc3N)C2)ccc1O [Compd. No. 2158, (R)-3-[[N-(2-amino-5-trifluoromethylbenzoyl)glycyl]amino]-1-(3-methylamino-4-hydroxybenzyl)pyrrolidine]
≤ 0.1 | Nc1cc(Cl)ccc1CN1CC[C@@H](NC(=O)CNC(=O)c2cc(OC(F)(F)F)ccc2N)C1 [Compd. No. 1921, (R)-3-[[N-(2-amino-5-trifluoromethoxybenzoyl)glycyl]amino]-1-(2-amino-4-chlorobenzyl)pyrrolidine]
≤ 0.1 | Nc1cc(CN2CC[C@@H](NC(=O)CNC(=O)c3cc(C(F)(F)F)ccc3N)C2)ccc1Cl [Compd. No. 2132, (R)-1-(3-amino-4-chlorobenzyl)-3-[[N-(2-amino-5-trifluoromethylbenzoyl)glycyl]amino]pyrrolidine]
